Test system: 328373-195-R-J1-PDC complex spheroids, viability % test/control
Experiment: Anticancer human tumor 328373-195-R-J1-PDC patient-derived head and neck squamous carcinoma cell line growth inhibition [CLK]
Conditions: for IC50: curve of first compound; for viability, T/C: stronger effect = lower value
Summary of the method: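 Patient-derived tumor cells grown as complex spheroids with HUVEC endothelial cells and mesenchymal stem cells, treated with drug combinations. Concentrations descend in half-log steps from near clinical Cmax, or from 10 microM if Cmax unknown.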

[1] = second compound 0.0316 µM, first compound 0.0316 µM
[2] = second compound 0.0316 µM, first compound 0.1 µM
[3] = second compound 0.0316 µM, first compound 0.316 µM
[4] = second compound 0.0316 µM, first compound 1 µM
[5] = second compound 0.0316 µM, first compound 3.16 µM
[6] = second compound 0.0316 µM, first compound 10 µM
[7] = second compound 0.1 µM, first compound 0.0316 µM
[8] = second compound 0.1 µM, first compound 0.1 µM
[9] = second compound 0.1 µM, first compound 0.316 µM
[10] = second compound 0.1 µM, first compound 1 µM
[11] = second compound 0.1 µM, first compound 3.16 µM
[12] = second compound 0.1 µM, first compound 10 µM
[13] = second compound 0.316 µM, first compound 0.0316 µM
[14] = second compound 0.316 µM, first compound 0.1 µM
[15] = second compound 0.316 µM, first compound 0.316 µM
[16] = second compound 0.316 µM, first compound 1 µM
[17] = second compound 0.316 µM, first compound 3.16 µM
[18] = second compound 0.316 µM, first compound 10 µM
[19] = second compound 1 µM, first compound 0.0316 µM
[20] = second compound 1 µM, first compound 0.1 µM
[21] = second compound 1 µM, first compound 0.316 µM
[22] = second compound 1 µM, first compound 1 µM
[23] = second compound 1 µM, first compound 3.16 µM
[24] = second compound 1 µM, first compound 10 µM
[25] = second compound 3.16 µM, first compound 0.0316 µM
[26] = second compound 3.16 µM, first compound 0.1 µM
[27] = second compound 3.16 µM, first compound 0.316 µM
[28] = second compound 3.16 µM, first compound 1 µM
[29] = second compound 3.16 µM, first compound 3.16 µM
[30] = second compound 3.16 µM, first compound 10 µM
[31] = second compound 10 µM, first compound 0.0316 µM
[32] = second compound 10 µM, first compound 0.1 µM
[33] = second compound 10 µM, first compound 0.316 µM
[34] = second compound 10 µM, first compound 1 µM
[35] = second compound 10 µM, first compound 3.16 µM
[36] = second compound 10 µM, first compound 10 µM
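Also: spheroids exposed to the agents for 7 days.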

COc1ccc([C@@H](O)c2cc(-c3ncnc4cc(N5CCOCC5)ccc34)c(F)cc2Cl)nn1 + CN1CCN(c2cc(C(=O)Nc3cc4cc(-c5cnn(C)c5)ccc4cn3)ccn2)CC1
IC50 (second compound 0.0316 µM): > 10000 nM
IC50 (second compound 0.1 µM): 8160 nM
IC50 (second compound 0.316 µM): < 31.6 nM
IC50 (second compound 1 µM): < 31.6 nM
IC50 (second compound 3.16 µM): < 31.6 nM
IC50 (second compound 10 µM): < 31.6 nM
viability, T/C [1]: 91.6%
viability, T/C [2]: 103%
viability, T/C [3]: 91.1%
viability, T/C [4]: 96.7%
viability, T/C [5]: 71.7%
viability, T/C [6]: 51.5%
viability, T/C [7]: 73.2%
viability, T/C [8]: 87.5%
viability, T/C [9]: 73%
viability, T/C [10]: 96.7%
viability, T/C [11]: 71.5%
viability, T/C [12]: 45.4%
viability, T/C [13]: 21%
viability, T/C [14]: 25.2%
viability, T/C [15]: 20.6%
viability, T/C [16]: 17.7%
viability, T/C [17]: 21.5%
viability, T/C [18]: 22.5%
viability, T/C [19]: 0.11%
viability, T/C [20]: 2.93%
viability, T/C [21]: 2.16%
viability, T/C [22]: 2.41%
viability, T/C [23]: 1.4%
viability, T/C [24]: 2.54%
viability, T/C [25]: 2.66%
viability, T/C [26]: 0.1%
viability, T/C [27]: 0.14%
viability, T/C [28]: 0.11%
viability, T/C [29]: 3.57%
viability, T/C [30]: 2.6%
viability, T/C [31]: 1.28%
viability, T/C [32]: 1.19%
viability, T/C [33]: 0.19%
viability, T/C [34]: 0.13%
viability, T/C [35]: 0.17%
viability, T/C [36]: 1.61%

COc1cccc2c1C(=O)c1c(O)c3c(c(O)c1C2=O)CC(O)(C(=O)CO)CC3OC1CC(N)C(O)C(C)O1 (stereo unspecified) + CN1CCN(c2cc(C(=O)Nc3cc4cc(-c5cnn(C)c5)ccc4cn3)ccn2)CC1
IC50 (second compound 0.0316 µM): < 31.6 nM
IC50 (second compound 0.1 µM): < 31.6 nM
IC50 (second compound 0.316 µM): < 31.6 nM
IC50 (second compound 1 µM): < 31.6 nM
IC50 (second compound 3.16 µM): < 31.6 nM
IC50 (second compound 10 µM): < 31.6 nM
viability, T/C [1]: 13.4%
viability, T/C [2]: 8.66%
viability, T/C [3]: 2.1%
viability, T/C [4]: 0.22%
viability, T/C [5]: 2.55%
viability, T/C [6]: 1.06%
viability, T/C [7]: 14.7%
viability, T/C [8]: 5.57%
viability, T/C [9]: 0.44%
viability, T/C [10]: 0.19%
viability, T/C [11]: 0.12%
viability, T/C [12]: 1.87%
viability, T/C [13]: 13.2%
viability, T/C [14]: 2.4%
viability, T/C [15]: 3.38%
viability, T/C [16]: 1.11%
viability, T/C [17]: 0.1%
viability, T/C [18]: 2%
viability, T/C [19]: 1.05%
viability, T/C [20]: 2.51%
viability, T/C [21]: 4.63%
viability, T/C [22]: 0.09%
viability, T/C [23]: 1.51%
viability, T/C [24]: 0.08%
viability, T/C [25]: 0.07%
viability, T/C [26]: 4.11%
viability, T/C [27]: 0.93%
viability, T/C [28]: 0.07%
viability, T/C [29]: 1.76%
viability, T/C [30]: 0.11%
viability, T/C [31]: 0.1%
viability, T/C [32]: 0.75%
viability, T/C [33]: 0.41%
viability, T/C [34]: 0.11%
viability, T/C [35]: 2.76%
viability, T/C [36]: 0.61%

C=C(F)C(=O)N1CCN(c2nc(OCC3CCCN3C)nc3c2CCN(c2cccc4cccc(Cl)c24)C3)CC1CC#N (stereo unspecified) + CNC(=O)c1ccc(Nc2nc(OC3CCCC3)c3c(-c4ccc5nc(C)oc5c4)c[nH]c3n2)c(OC)c1
IC50 (second compound 0.0316 µM): 1810 nM
IC50 (second compound 0.1 µM): < 31.6 nM
IC50 (second compound 0.316 µM): < 31.6 nM
IC50 (second compound 1 µM): < 31.6 nM
IC50 (second compound 3.16 µM): < 31.6 nM
IC50 (second compound 10 µM): < 31.6 nM
viability, T/C [1]: 55%
viability, T/C [2]: 57.6%
viability, T/C [3]: 57%
viability, T/C [4]: 57.2%
viability, T/C [5]: 43.8%
viability, T/C [6]: 0.11%
viability, T/C [7]: 11.2%
viability, T/C [8]: 9.34%
viability, T/C [9]: 8.18%
viability, T/C [10]: 10.4%
viability, T/C [11]: 10.7%
viability, T/C [12]: 0.09%
viability, T/C [13]: 10.5%
viability, T/C [14]: 8.47%
viability, T/C [15]: 10.6%
viability, T/C [16]: 8.2%
viability, T/C [17]: 8.71%
viability, T/C [18]: 0.79%
viability, T/C [19]: 8.55%
viability, T/C [20]: 9.75%
viability, T/C [21]: 8.98%
viability, T/C [22]: 8.73%
viability, T/C [23]: 11.3%
viability, T/C [24]: 0.08%
viability, T/C [25]: 11.6%
viability, T/C [26]: 10%
viability, T/C [27]: 9.7%
viability, T/C [28]: 10.9%
viability, T/C [29]: 9.36%
viability, T/C [30]: 0.12%
viability, T/C [31]: 11.1%
viability, T/C [32]: 11.5%
viability, T/C [33]: 9.68%
viability, T/C [34]: 10.4%
viability, T/C [35]: 11.6%
viability, T/C [36]: 0.19%

Source: PubChem BioAssay AID2060620 (Molecular Pharmacology Branch, DTP, NCI, 2025)
